From US11959104B2, “Methods of differentiating stem cell-derived ectodermal lineage precursors” (MEMORIAL SLOAN-KETTERING CANCER CENTER, priority 2016, dated 2024) come the findings set out here.

Series [1] deals with Six1::H2B-GFP reporter line. Kind of series: LOPAC small molecule screen and validation for enhanced CP induction.
Experimental: All differentiations starting from E8 were dissociated into single cells using EDTA and replated at high density in E8 with the ROCK inhibitor (Tocris). Cells were typically seeded at a density of 200,000 cells/cm^2 on Matrigel coated dishes. Switching from E8 to E6 triggered differentiations (i.e. d0). Neuroectoderm (NE) formation was generated by culturing the cells in E6 with 10 nM SB and 500 nM LDN until d12. Neural Crest (NC) was first treated with 10 nM SB, 600 nM CHIR and 1 ng/ml BMP4 from d0-d2. […] Lens placode was first treated with 10 nM SB and 5 ng/ml BMP4 from d0-d2. At d2, cells were maintained in 10 nM SB with 100 ng/ml FGF2 until d12. Trigeminal placode was first treated with 10 nM SB and 5 ng/ml BMP4 from d0-d2. At d2, CHIR was added to the SB and BMP4 until d4. Finally, non-neural ectoderm (NNE) was treated with 10 nM SB, 10 nM SU5402 and 20 ng/ml BMP4 until d12.
Series [2] concerns hPSC-derived cranial placode. The experiment in a line: Pituitary placode induction, day 15 (qRT-PCR, immunofluorescence). Format: cell-based. The settings on record: for induction of anterior pituitary genes / lineage markers: from day 4, day 15 analysis. The procedure: For pituitary differentiation cells were plated at 250 000 cells/cm^2 on VTN-N coated dishes (differentiation works best in 24 well plates) in E8+10 μM Y-27632. After 24 h (day 0) medium was changed to E6 supplemented with 10 μM SB431542 and 5 ng/ml BMP4 (R&D Systems). Medium was changed every day. On day 3 BMP4 was removed from the medium and cells were cultured for 1 day in E6+10 μM SB431542. For the standard differentiation conditions, on day 4 E6 was supplemented with 10 μM SB431542, 200 ng/ml SHH (R&D Systems, C25II), 100 ng/ml FGF8b (R&D Systems) and 50 ng/ml FGF10 (Peprotech Inc.). For some experiments SHH was replaced by 1 μM purmorphamine (Stemgent) or 1 μM SAG (Stemcell Technologies). From now on medium volume was doubled and cells were feed every other day until day 15. On day 15 of differentiation SIX1 H2B::GFP^+ cells were sorted using a BDFACS Aria III cell sorter. Purified cells were then plated as droplets (50 000 cells/10 μl drop) in E6 supplemented with 10 Y-27632, 200 ng/ml SHH, 100 ng/ml FGF8b and 50 ng/ml FGF10 on polyornithine/laminin/fibronectin-coated plates. After 24 h medium was changed to E6 containing SHH, FGF8 and FGF10 until day 30. Medium was changed every other day. For some experiments pituitary induction was started slightly later (day 6) or cells were differentiated in medium conditioned by hypothalamic neuroectoderm from either day 4 or day 6 on. For the co-culture experiment SIX1 H2B::GFP positive cells were sorted on day 6 and 50 000 cells/cm^2 were plated directly on hypothalamic neuroectodermal cells in E6 only supplemented with 10 SB431542.
Total RNA was extracted from at least 3 independent experiments using the TRIzol (Fisher Scientific) reagent in combination with Phase-lock tubes (5Prime) according to the manufactures protocol. 1 μg of total RNA was reverse transcribed into cDNA using iScript (BioRad). For quantitative RT PCR we used the SSoFast EvaGreen Mix (BioRad) in combination with QuantiTect primer assays (Qiagen) on a BioRad CFX96 Thermal Cycler. All reactions were run according to the manufacturer's protocol. Results are calculated using the ΔΔCt method (Livak and Schmittgen, 2001).
After washing the cells once with PBS, cells were fixed with 4% (v/v) paraformaldehyde for 20 min, washed twice with PBS, permeabilized using 0.1% (v/v) Triton X-100 in PBS, Cells were blocked with 10% (v/v) FCS in PBS for 1-5 h at room temperature. Cells were incubated with primary antibodies diluted in 2% FCS (v/v) in PBS at 4° C. overnight. A list of the primary antibodies used in this study is provided as FIG. 28. […] After and additional 2 washing steps, fluorescence images of the cells were taken using an Olympus IX71 inverted microscope equipped with a Hamamatsu ORCA CCD camera.

A further series has as its system hPSCs. Kind of series: Toxicity of KSR-protocol small molecule concentrations in E6 differentiation. The series is classed as cell-based, human. As to conditions: original KSR-protocol concentration used in E6. The text has this: To transition these protocols into the more defined E6 media, we adapted hPSCs in E8 for multiple passages and simply replaced the KSR-based medium with an E6 based differentiation while maintaining factors and concentrations as described previously to trigger the 4 major ectodermal lineages (FIG. 9A). […] After determining an optimal non-toxic concentration for each of the small molecules we observed that NE formation under E6 conditions was equivalent to that obtained with KSR-based conditions. […] We compared the efficiency of generating PAX6 positive cells using either no small molecules, using dSMADi or using the single TGFβ inhibitor SB431542 (SB). We found robust PAX6 expression in the absence of dSMADi (˜40% of total cells on day 12 post induction). However, the percentage of cells expressing PAX6 was further improved upon addition of SB or dSMADi to nearly 90% and 80%, respectively (FIGS. 1E and 9B).

Series [3] has as its system hPSC-derived pituitary cells. Kind of series: Stimulation of hormone release in vitro (ELISA). Format: cell-based, human. The settings on record: day 30 of differentiation. The procedure: To stimulate hormone release in vitro, cells were differentiated in 24 well plates as described above. On day 30 of differentiation cells were washed once with PBS and 250 μl of fresh medium containing either the solvent or the stimulant were added to each well. After 12 h the supernatant was removed and centrifuged for 5 min at 2000 g to pellet debris. Supernatant was transferred into fresh reaction tubes, flash frozen and stored at −80° C. until ELISA measurements. Stimulants used were: CRF (Tocris, 1 μM), Stressin I (Tocris, 2 μM), Ghrelin (Tocris, 1 μM), Somatocrinin (Accurate Chemical, 1 μg/ml), Nafarelin (Tocris, 1 μM) and Urocortin (Tocris, 500 nM).
Hormone concentration in the supernatant of cells or in animal serum was analyzed using ELISA measurements. Hormone concentration in the cell culture supernatant was assessed using traditional single hormone ELISA Kits according to the manufactures manual. ACTH (Calbiotech, detects rat and human ACTH), hGH (R&D Systems, human specific), FSH (Calbiotech, FSH (lumELISA, human specific) and corticosterone (Abcam). Plates were read using an EnSpire Multimode plate reader (PerkinElmer). Hormone concentration in in vivo samples was analyzed using either traditional ELISA (for ACTH only, serum diluted 1:2) or species specific (human or rat) Milliplex multiplex ELISA using Luminex technology (Millipore). Magnetic bead-based sandwich immunoassay was performed according to the manufactures manual. 25 μl of undiluted serum samples in duplicate wells were analyzed by Luminex FlexMap 3D (Luminex Corp, Austin, TX). Cytokine concentrations were determined by Luminex Xponent 4.1 and EMD-Millipore Milliplex Analyst v5.1 using 5-p log analysis.
On the technique in general: An ELISA detects its analyte on a solid surface through an enzyme-linked reagent.

For series [4], the system named is hPSC. Kind of series: Neural crest induction, SOX10 positive cells. The series is classed as cell-based, human. As for the experimental part: (§1) All differentiations starting from E8 were dissociated into single cells using EDTA and replated at high density in E8 with the ROCK inhibitor (Tocris). Cells were typically seeded at a density of 200,000 cells/cm^2 on Matrigel coated dishes. Switching from E8 to E6 triggered differentiations (i.e. d0). Neuroectoderm (NE) formation was generated by culturing the cells in E6 with […] and 500 nM LDN until d12. Neural Crest (NC) was first treated with […], 600 nM CHIR and 1 ng/ml BMP4 from d0-d2. At d2, cells were maintained in […] with 1.5 uM CHIR until d12. Lens placode was first treated with […] and 5 ng/ml BMP4 from d0-d2. At d2, cells were maintained in […] with 100 ng/ml FGF2 until d12. Trigeminal placode was first treated with […] and 5 ng/ml BMP4 from d0-d2. At d2, CHIR was added to the SB and BMP4 until d4. Finally, non-neural ectoderm (NNE) was treated with 10 nM SB, 10 nM SU5402 and 20 ng/ml BMP4 until d12.

For series [5], the system named is hPSC. Kind of series: BMP dose response for TFAP2A, NNE and CP induction in E6 media. Format: cell-based, human. As for the experimental part:
as §1

[6] abbreviates: three-day pulse with SB431542, dose-response.

Entries after “also recorded” stand apart in the source; their conditions may differ. Read-outs that look alike come from different tables or passages of the source. Ends that are not written are not given here.

`c1cnc2c(c1)ccc1cccnc12` [Phenantroline]: in series [1] (CP protocol), the “percentage of cells expressing Six1 (hit validation)” value is listed as “confirmed to reliably enhance the percentage of cells expressing Six1”. Moreover, in series [1] (CP protocol in the absence of FGF2, control 18%), the Six1 positive cells was 69%. In addition, the “expression of Six1 versus control differentiations (primary screen hit)” value in series [1] (LOPAC screen, CP protocol) is reported as “increased expression of SIX1”. In series [1] (absence of FGF2, 69% versus 18%), the “fold increase of Six1 positive cells” value is recorded as about 4 fold. Also, in series [1] (differentiation towards CP), the “expression of other lineage markers such as Sox10, T, MyoD or Sox17” value is reported as “without inducing the expression of other lineage markers” and the “increase in Six1 expression over controls” value is listed as “five-fold”.

Turning to `CNC1CCC(N(Cc2cccc(-c3ccncc3)c2)C(=O)c2sc3ccccc3c2Cl)CC1` (centres unmarked) [SAG], the “induction of anterior pituitary genes / lineage markers” value in series [2] is “robust induction of anterior pituitary-lineage markers”. The cell death entry in series [2] (small-molecule-based induction replacing SHH) is on record as “increase in cell death”.

`Cc1c[nH]c(/C=C2\C(=O)Nc3ccccc32)c1CCC(=O)O` [SU5402, 2-[(1,2-Dihydro-2-oxo-3H-indol-3-ylidene)methyl]-4-methyl-1H-pyrrole-3-pr-opanoic acid]: in the series with hPSCs, the “cell killing during differentiation” value is given as “effectively killed the cells”.

Take `c1ccc2c(Oc3nc(Nc4ccc(N5CCOCC5)cc4)c4ncn(C5CCCCC5)c4n3)cccc2c1` [purmorphamine]: in series [2], the cell death entry is listed as “increase in cell death” and the “induction of anterior pituitary genes / lineage markers” value is on record as “robust induction of anterior pituitary-lineage markers”.

With “CRF: stimulant of hormone release (Tocris, 1 μM) (SEEPPISLDLTFHLLREVLEMARAEQLAQQAHSNRKLMEII; ends and bridges not checked; UniProt P06850 154-194, looked up)”, the ACTH release result in series [3] is “induced release of ACTH; also recorded: specifically induced”.

With “Ghrelin: stimulant of hormone release (Tocris, 1 μM) (GSSFLSPEHQRVQQRKESKKPPAKLQPR; also: octanoylated, site not given here; UniProt Q9UBU3 24-51, looked up)”, the ACTH release result in series [3] is reported as “did not trigger ACTH release”.

On to “Somatocrinin: stimulant of hormone release (Accurate Chemical, 1 μg/ml) (YADAIFTNSYRKVLGQLSARKLLQDIMSRQQGESNQERGARARL; ends and bridges not checked; UniProt P01286 32-75, looked up)”, for which the GH release entry in series [3] is given as “induced”. Besides, in series [3] (listed as somatocrinin), the ACTH release entry is recorded as “did not trigger ACTH release” and the GH release result is given as “triggered robust increase in GH release”.

Regarding “Urocortin: stimulant of hormone release (Tocris, 500 nM) (DNPSLSIDLTFHLLRTLLELARTQSQRERAEQNRIIFDSV; ends and bridges not checked; UniProt P55089 83-122, looked up)”, the ACTH release result in series [3] is on record as “specifically induced”; in series [3] (listed as urocortin), “induced release of ACTH”.

B1: BMP4: activator of BMP signaling (protein, UniProt P12644 293-408, looked up)
Bone morphogenetic protein 4: SPKHHSQRARKKNKNCRRHSLYVDFSDVGWNDWIVAPPGYQAFYCHGDCPFPLADHLNSTNHAIVQTLVNSVNSSIPKACCVPTELSAISMLYLDEYDKVVLKNYQEMVVEGCGCR
For the molecule B1, the “SOX10 positive NC population generated” value with hPSC [4] (short pulse of BMP4 (1 ng/ml) with Wnt activation and SB431542) is recorded as “nearly homogenous SOX10 positive NC population”. For the same molecule, in the series on hPSC [4] (setting [6]), the “BMP4 concentration giving strong NC induction” value is “around 1 ng/ml”. Further, the “BMP4 concentration optimal for CP induction” value with hPSC [5] (setting [6]) was “around 5 ng/ml”.

B2: BMP: BMP signaling activator used in E6 media, BMP4 per methods (protein, UniProt P12644 293-408, looked up)
Bone morphogenetic protein 4: SPKHHSQRARKKNKNCRRHSLYVDFSDVGWNDWIVAPPGYQAFYCHGDCPFPLADHLNSTNHAIVQTLVNSVNSSIPKACCVPTELSAISMLYLDEYDKVVLKNYQEMVVEGCGCR
With B2, in the series on hPSC [5] (20 ng/ml BMP), the “marker phenotype at high BMP (NNE)” value is “cells become TFAP2A positive and lack the expression of SOX10 and SIX1”. Also, the TFAP2A expression result in the series with hPSC [5] (within three days, with SB431542 in E6 media, dose dependent) was “rapidly upregulated”.
